What was measured:
Assay in all cases: relative viability (nuclei count vs DMSO), 5 days (fraction); higher = more cells survive
[1] = tested on: ChaGo-K-1
Method in brief: (§1)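 Dosing by pin tool came one day after lung cancer cell lines were seeded in 1536-well plates, using either one drug or a fixed anchor-drug dose plus five library-drug doses (not always all listed) in √10 steps. After 5 days, nuclei were counted on 4× images. Relative viability is treated-well nuclei count divided by vehicle-well nuclei count, and values are medians of duplicate plates.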

[2] = tested on: HARA
Method in brief: as §1

[3] = tested on: NCI-H441
Method in brief: as §1

[4] = tested on: HCC-827
Method in brief: as §1

[5] = tested on: LCLC-97TM1
Method in brief: as §1

[6] = tested on: NCI-H1437
Method in brief: as §1

[7] = tested on: NCI-H322M
Method in brief: as §1

[8] = tested on: EMC-BAC-2
Method in brief: as §1

[9] = tested on: PC-3 [JPC-3]
Method in brief: as §1

[10] = tested on: NCI-H460
Method in brief: as §1

[11] = tested on: NCI-H661
Method in brief: as §1

[12] = tested on: EKVX
Method in brief: as §1

[13] = tested on: H3255
Method in brief: as §1

[14] = tested on: NCI-H1915
Method in brief: as §1

[15] = tested on: HCC-15
Method in brief: as §1

[16] = tested on: NCI-H1793
Method in brief: as §1

[17] = tested on: LU99A
Method in brief: as §1

[18] = tested on: NCI-H1944
Method in brief: as §1

[19] = tested on: LC-2-ad
Method in brief: as §1

[20] = tested on: NCI-H1792
Method in brief: as §1

[21] = tested on: NCI-H2126
Method in brief: as §1

[22] = tested on: SK-LU-1
Method in brief: as §1

[23] = tested on: NCI-H23
Method in brief: as §1

O=c1[nH]c2ccccc2n1C1CCN(CCCC(c2ccc(F)cc2)c2ccc(F)cc2)CC1 [Pimozide] + Nc1ncn([C@H]2C[C@H](O)[C@@H](CO)O2)c(=O)n1 [Decitabine] (partner 2 µM)
relative viability ([1]; first compound 0.08 µM): 0.515
relative viability ([1]; first compound 0.253 µM): 0.453
relative viability ([1]; first compound 0.8 µM): 0.5
relative viability ([1]; first compound 2.53 µM): 0.546
relative viability ([1]; first compound 8 µM): 0.546
relative viability ([2]; first compound 0.08 µM): 0.535
relative viability ([2]; first compound 0.253 µM): 0.586
relative viability ([2]; first compound 0.8 µM): 0.476
relative viability ([2]; first compound 2.53 µM): 0.528
relative viability ([2]; first compound 8 µM): 0.617
relative viability ([3]; first compound 0.08 µM): 0.208
relative viability ([3]; first compound 0.253 µM): 0.255
relative viability ([3]; first compound 0.8 µM): 0.234
relative viability ([3]; first compound 2.53 µM): 0.236
relative viability ([3]; first compound 8 µM): 0.241
relative viability ([4]; first compound 0.253 µM): 0.284
relative viability ([4]; first compound 0.8 µM): 0.348
relative viability ([4]; first compound 2.53 µM): 0.334
relative viability ([4]; first compound 8 µM): 0.32
relative viability ([5]; first compound 0.08 µM): 0.229
relative viability ([5]; first compound 0.253 µM): 0.245
relative viability ([5]; first compound 0.8 µM): 0.183
relative viability ([5]; first compound 2.53 µM): 0.221
relative viability ([5]; first compound 8 µM): 0.228
relative viability ([6]; first compound 0.08 µM): 0.632
relative viability ([6]; first compound 0.253 µM): 0.547
relative viability ([6]; first compound 0.8 µM): 0.555
relative viability ([6]; first compound 2.53 µM): 0.465
relative viability ([6]; first compound 8 µM): 0.549
relative viability ([7]; first compound 0.08 µM): 0.581
relative viability ([7]; first compound 0.253 µM): 0.705
relative viability ([7]; first compound 0.8 µM): 0.719
relative viability ([7]; first compound 2.53 µM): 0.772
relative viability ([7]; first compound 8 µM): 0.632
relative viability ([8]; first compound 0.08 µM): 0.956
relative viability ([8]; first compound 0.253 µM): 0.918
relative viability ([8]; first compound 0.8 µM): 0.911
relative viability ([8]; first compound 2.53 µM): 0.953
relative viability ([8]; first compound 8 µM): 0.983
relative viability ([9]; first compound 0.253 µM): 0.838
relative viability ([9]; first compound 0.8 µM): 0.823
relative viability ([9]; first compound 2.53 µM): 0.904
relative viability ([9]; first compound 8 µM): 0.854
relative viability ([10]; first compound 0.08 µM): 0.553
relative viability ([10]; first compound 0.253 µM): 0.494
relative viability ([10]; first compound 0.8 µM): 0.462
relative viability ([10]; first compound 2.53 µM): 0.521
relative viability ([10]; first compound 8 µM): 0.45
relative viability ([11]; first compound 0.08 µM): 0.564
relative viability ([11]; first compound 0.253 µM): 0.581
relative viability ([11]; first compound 0.8 µM): 0.48
relative viability ([11]; first compound 2.53 µM): 0.497
relative viability ([11]; first compound 8 µM): 0.495
relative viability ([12]; first compound 0.253 µM): 0.333
relative viability ([12]; first compound 0.8 µM): 0.341
relative viability ([12]; first compound 2.53 µM): 0.349
relative viability ([12]; first compound 8 µM): 0.364
relative viability ([13]; first compound 0.253 µM): 0.538
relative viability ([13]; first compound 0.8 µM): 0.496
relative viability ([13]; first compound 2.53 µM): 0.626
relative viability ([13]; first compound 8 µM): 0.734
relative viability ([14]; first compound 0.08 µM): 0.267
relative viability ([14]; first compound 0.253 µM): 0.248
relative viability ([14]; first compound 2.53 µM): 0.262
relative viability ([14]; first compound 8 µM): 0.262
relative viability ([15]; first compound 0.08 µM): 0.658
relative viability ([15]; first compound 0.253 µM): 0.629
relative viability ([15]; first compound 0.8 µM): 0.452
relative viability ([15]; first compound 2.53 µM): 0.551
relative viability ([15]; first compound 8 µM): 0.66
relative viability ([16]; first compound 0.08 µM): 0.501
relative viability ([16]; first compound 0.253 µM): 0.489
relative viability ([16]; first compound 0.8 µM): 0.516
relative viability ([16]; first compound 2.53 µM): 0.556
relative viability ([16]; first compound 8 µM): 0.58
relative viability ([17]; first compound 0.08 µM): 0.979
relative viability ([17]; first compound 0.8 µM): 0.97
relative viability ([17]; first compound 2.53 µM): 0.829
relative viability ([17]; first compound 8 µM): 0.847
relative viability ([18]; first compound 0.08 µM): 0.398
relative viability ([18]; first compound 2.53 µM): 0.436
relative viability ([18]; first compound 8 µM): 0.393
relative viability ([19]; first compound 0.08 µM): 0.776
relative viability ([19]; first compound 0.253 µM): 0.697
relative viability ([19]; first compound 0.8 µM): 0.854
relative viability ([19]; first compound 2.53 µM): 0.868
relative viability ([19]; first compound 8 µM): 0.837
relative viability ([20]; first compound 0.08 µM): 0.59
relative viability ([20]; first compound 0.253 µM): 0.53
relative viability ([20]; first compound 0.8 µM): 0.33
relative viability ([20]; first compound 2.53 µM): 0.534
relative viability ([20]; first compound 8 µM): 0.547
relative viability ([21]; first compound 0.08 µM): 0.613
relative viability ([21]; first compound 0.253 µM): 0.576
relative viability ([21]; first compound 0.8 µM): 0.549
relative viability ([21]; first compound 2.53 µM): 0.557
relative viability ([21]; first compound 8 µM): 0.62
relative viability ([22]; first compound 0.08 µM): 0.631
relative viability ([22]; first compound 0.253 µM): 0.741
relative viability ([22]; first compound 0.8 µM): 0.6
relative viability ([22]; first compound 2.53 µM): 0.583
relative viability ([22]; first compound 8 µM): 0.49
relative viability ([23]; first compound 0.08 µM): 0.304
relative viability ([23]; first compound 0.253 µM): 0.301
relative viability ([23]; first compound 0.8 µM): 0.294
relative viability ([23]; first compound 2.53 µM): 0.333
relative viability ([23]; first compound 8 µM): 0.325
